For one compound, Activity results are on record in ChEMBL document CHEMBL5696441 (Nat Chem Biol, 2011).

Assay [1] deals with Calcium/calmodulin-dependent protein kinase type II subunit gamma (Homo sapiens) (UniProt Q13555). In words: Inhibition of CAMK2G (unknown origin) assessed as remaining activity at 1 uM by Kinome scan method relative to control.
The target in assay [2] is Cyclin-dependent kinase-like 3 (Homo sapiens) (UniProt Q8IVW4). In words: Inhibition of CDKL3 (unknown origin) assessed as remaining activity at 1 uM by Kinome scan method relative to control.
Assay [3] concerns Receptor-type tyrosine-protein kinase FLT3 (Homo sapiens), P36888 [UNDEFINED MUTATION]. In words: Inhibition of FLT3 ITD mutant (unknown origin) assessed as remaining activity at 1 uM by Kinome scan method relative to control.
The target of assay [4] is Serine/threonine-protein kinase 38-like (Homo sapiens) (UniProt Q9Y2H1). In words: Inhibition of NDR2 (unknown origin) assessed as remaining activity at 1 uM by Kinome scan method relative to control.
For assay [5], the target named is Platelet-derived growth factor receptor beta (Homo sapiens) (UniProt P09619). In words: Inhibition of PDGFRbeta (unknown origin) assessed as remaining activity at 1 uM by Kinome scan method relative to control.
The target of assay [6] is Phosphatidylinositol 4-phosphate 3-kinase C2 domain-containing subunit beta (Homo sapiens) (UniProt O00750). In words: Inhibition of PIK3C2B (unknown origin) assessed as remaining activity at 1 uM by Kinome scan method relative to control.
Assay [7] addresses Phosphatidylinositol 4-phosphate 5-kinase type-1 alpha (Homo sapiens) (UniProt Q99755). In words: Inhibition of PIP5K1A (unknown origin) assessed as remaining activity at 1 uM by Kinome scan method relative to control.
Assay [8] deals with Activated CDC42 kinase 1 (Homo sapiens) (UniProt Q07912). In words: Inhibition of human ACK1 assessed as residual activity at 1 uM using PolyEY as substrate in presence of 33P-ATP by ProQinase assay relative to control.
In assay [9] the target is Cyclin-dependent kinase 4/cyclin D1 (Homo sapiens) (UniProt P11802+P24385). In words: Inhibition of human CDK4/CyclinD1 assessed as residual activity at 1 uM using RBER-CHKtide as substrate in presence of 33P-ATP by ProQinase assay relative to control. The class given is protein-complex assay.
The target in assay [10] is Tyrosine-protein kinase CSK (Homo sapiens) (UniProt P41240). In words: Inhibition of human CSK assessed as residual activity at 1 uM using polyEY as substrate in presence of 33P-ATP by ProQinase assay relative to control.
Tyrosine-protein kinase CSK (Homo sapiens), sequence (P41240 2-450 limits assumed): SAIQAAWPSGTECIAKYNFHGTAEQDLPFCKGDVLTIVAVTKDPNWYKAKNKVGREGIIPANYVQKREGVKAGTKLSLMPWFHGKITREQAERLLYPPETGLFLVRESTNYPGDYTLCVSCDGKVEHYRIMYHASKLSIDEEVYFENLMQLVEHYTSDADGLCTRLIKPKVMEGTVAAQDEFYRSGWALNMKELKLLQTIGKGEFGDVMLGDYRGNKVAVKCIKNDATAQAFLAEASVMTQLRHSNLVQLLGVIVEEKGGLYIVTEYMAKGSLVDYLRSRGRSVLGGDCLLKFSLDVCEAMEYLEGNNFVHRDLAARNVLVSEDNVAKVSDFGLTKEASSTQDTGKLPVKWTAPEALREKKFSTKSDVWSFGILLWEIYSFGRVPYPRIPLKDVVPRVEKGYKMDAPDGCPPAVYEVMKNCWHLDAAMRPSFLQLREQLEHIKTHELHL
Assay [11] concerns the target Dual specificity tyrosine-phosphorylation-regulated kinase 1B (Homo sapiens) (UniProt Q9Y463). In words: Inhibition of human DYRK1B assessed as residual activity at 1 uM using RBER-CHKtide as substrate in presence of 33P-ATP by ProQinase assay relative to control.
Assay [12] has as its target Ephrin type-B receptor 3 (Homo sapiens) (UniProt P54753). In words: Inhibition of human EPHB3 assessed as residual activity at 1 uM using polyEY as substrate in presence of 33P-ATP by ProQinase assay relative to control.
Assay [13] deals with Tyrosine-protein kinase FRK (Homo sapiens) (UniProt P42685). In words: Inhibition of human FRK assessed as residual activity at 1 uM using PolyEY as substrate in presence of 33P-ATP by ProQinase assay relative to control.
Assay [14] addresses Inhibitor of nuclear factor kappa-B kinase subunit epsilon (Homo sapiens) (UniProt Q14164). In words: Inhibition of human IKKepsilon assessed as residual activity at 1 uM using RBER-GSK3 as substrate in presence of 33P-ATP by ProQinase assay relative to control.
Assay [15] addresses Mast/stem cell growth factor receptor Kit (Homo sapiens) (UniProt P10721). In words: Inhibition of human KIT assessed as residual activity at 1 uM using polyEY as substrate in presence of 33P-ATP by ProQinase assay relative to control.
Assay [16] deals with Tyrosine-protein kinase Lyn (Homo sapiens) (UniProt P07948). In words: Inhibition of human LYN assessed as residual activity at 1 uM using polyEY as substrate in presence of 33P-ATP by ProQinase assay relative to control.
The target in assay [17] is Serine/threonine-protein kinase MARK2 (Homo sapiens) (UniProt Q7KZI7). In words: Inhibition of human MARK2 assessed as residual activity at 1 uM using RBER-CHKtide as substrate in presence of 33P-ATP by ProQinase assay relative to control.
Serine/threonine-protein kinase MARK2 (Homo sapiens), sequence (Q7KZI7 whole entry): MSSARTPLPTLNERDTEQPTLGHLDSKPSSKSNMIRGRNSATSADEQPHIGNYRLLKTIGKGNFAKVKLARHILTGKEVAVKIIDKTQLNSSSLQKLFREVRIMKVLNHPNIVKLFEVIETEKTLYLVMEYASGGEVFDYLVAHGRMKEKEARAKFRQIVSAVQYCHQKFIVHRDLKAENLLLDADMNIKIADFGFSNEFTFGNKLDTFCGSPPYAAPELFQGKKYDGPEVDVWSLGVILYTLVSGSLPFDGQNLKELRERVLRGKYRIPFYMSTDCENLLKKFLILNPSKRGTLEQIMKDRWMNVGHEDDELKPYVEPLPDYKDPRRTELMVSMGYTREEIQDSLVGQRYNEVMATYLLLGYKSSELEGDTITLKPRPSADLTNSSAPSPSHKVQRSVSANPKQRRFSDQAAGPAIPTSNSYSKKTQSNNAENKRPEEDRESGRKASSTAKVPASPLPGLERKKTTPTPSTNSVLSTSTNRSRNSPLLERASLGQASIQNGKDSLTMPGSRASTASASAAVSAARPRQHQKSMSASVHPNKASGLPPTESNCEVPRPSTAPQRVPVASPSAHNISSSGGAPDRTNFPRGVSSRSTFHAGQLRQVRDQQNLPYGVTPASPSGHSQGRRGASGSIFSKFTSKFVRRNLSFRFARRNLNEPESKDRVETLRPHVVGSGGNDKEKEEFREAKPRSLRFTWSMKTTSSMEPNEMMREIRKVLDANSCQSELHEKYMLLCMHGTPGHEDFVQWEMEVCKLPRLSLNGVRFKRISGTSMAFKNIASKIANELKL
Assay [18] has as its system Hepatocyte growth factor receptor (Homo sapiens), P08581 [Y1230A]. In words: Inhibition of human MET Y1230A mutant assessed as residual activity at 1 uM using poly(Ala,Glu,Lys,Tyr)6:2:5:1 as substrate in presence of 33P-ATP by ProQinase assay relative to control.
Assay [19] concerns the target Serine/threonine-protein kinase pim-2 (Homo sapiens) (UniProt Q9P1W9). In words: Inhibition of human PIM2 assessed as residual activity at 1 uM using RBER-GSK3(14-27) as substrate in presence of 33P-ATP by ProQinase assay relative to control.
Assay [20] deals with T1, cGMP-dependent protein kinase 2 (Homo sapiens) (UniProt Q13237).
T1 sequence (whole entry): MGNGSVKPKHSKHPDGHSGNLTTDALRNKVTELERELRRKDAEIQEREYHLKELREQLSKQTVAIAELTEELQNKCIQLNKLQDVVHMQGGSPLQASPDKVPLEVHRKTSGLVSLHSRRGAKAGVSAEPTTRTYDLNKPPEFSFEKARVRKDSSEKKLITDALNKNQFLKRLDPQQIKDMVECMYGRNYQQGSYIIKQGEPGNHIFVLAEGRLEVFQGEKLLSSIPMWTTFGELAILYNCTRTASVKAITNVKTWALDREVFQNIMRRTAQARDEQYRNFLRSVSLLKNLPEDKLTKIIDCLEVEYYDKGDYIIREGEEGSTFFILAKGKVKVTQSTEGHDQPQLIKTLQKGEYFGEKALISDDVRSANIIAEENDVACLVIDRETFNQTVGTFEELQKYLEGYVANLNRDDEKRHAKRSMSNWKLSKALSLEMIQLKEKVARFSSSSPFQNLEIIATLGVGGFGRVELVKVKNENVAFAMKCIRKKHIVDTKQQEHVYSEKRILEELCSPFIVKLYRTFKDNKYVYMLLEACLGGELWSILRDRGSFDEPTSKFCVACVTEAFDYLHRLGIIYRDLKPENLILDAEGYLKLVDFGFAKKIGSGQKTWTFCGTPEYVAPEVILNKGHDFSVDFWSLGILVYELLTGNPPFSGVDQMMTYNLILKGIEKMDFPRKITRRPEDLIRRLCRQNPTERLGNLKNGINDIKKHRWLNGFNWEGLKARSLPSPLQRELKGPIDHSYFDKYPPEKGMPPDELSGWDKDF
In words: Inhibition of human PRKG2 assessed as residual activity at 1 uM using RBER-GSK3(14-27) as substrate in presence of 33P-ATP by ProQinase assay relative to control.

Assay [21] concerns the target Serine/threonine-protein kinase PLK2 (Homo sapiens) (UniProt Q9NYY3). In words: Inhibition of human SNK assessed as residual activity at 1 uM using RBER-GSK3(14-27) as substrate in presence of 33P-ATP by ProQinase assay relative to control.

Mast/stem cell growth factor receptor Kit (Homo sapiens), sequence (P10721 whole entry): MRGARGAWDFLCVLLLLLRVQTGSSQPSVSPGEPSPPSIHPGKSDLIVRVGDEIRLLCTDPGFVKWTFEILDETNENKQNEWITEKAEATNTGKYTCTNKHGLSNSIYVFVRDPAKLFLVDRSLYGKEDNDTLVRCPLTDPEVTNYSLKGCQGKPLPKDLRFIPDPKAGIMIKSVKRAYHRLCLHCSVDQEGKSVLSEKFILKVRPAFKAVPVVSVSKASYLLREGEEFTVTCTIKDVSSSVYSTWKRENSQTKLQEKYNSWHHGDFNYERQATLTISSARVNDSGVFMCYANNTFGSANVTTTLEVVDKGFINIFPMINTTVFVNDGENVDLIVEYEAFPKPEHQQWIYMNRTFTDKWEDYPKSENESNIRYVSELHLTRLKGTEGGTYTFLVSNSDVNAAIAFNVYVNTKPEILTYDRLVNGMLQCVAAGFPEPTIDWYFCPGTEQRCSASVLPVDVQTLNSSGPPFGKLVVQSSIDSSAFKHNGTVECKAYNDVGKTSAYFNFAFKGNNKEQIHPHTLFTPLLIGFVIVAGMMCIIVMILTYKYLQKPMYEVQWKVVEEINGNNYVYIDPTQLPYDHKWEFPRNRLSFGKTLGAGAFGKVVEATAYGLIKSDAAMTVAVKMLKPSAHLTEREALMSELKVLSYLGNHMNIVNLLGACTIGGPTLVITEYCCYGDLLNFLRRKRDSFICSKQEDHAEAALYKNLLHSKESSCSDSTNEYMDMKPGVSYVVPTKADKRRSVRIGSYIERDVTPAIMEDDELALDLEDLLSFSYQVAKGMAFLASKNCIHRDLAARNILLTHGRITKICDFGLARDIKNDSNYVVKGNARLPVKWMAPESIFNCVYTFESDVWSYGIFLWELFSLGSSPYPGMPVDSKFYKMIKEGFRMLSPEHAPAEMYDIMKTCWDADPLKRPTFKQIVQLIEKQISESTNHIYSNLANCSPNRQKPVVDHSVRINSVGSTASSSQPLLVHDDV
Phosphatidylinositol 4-phosphate 5-kinase type-1 alpha (Homo sapiens), sequence (Q99755 whole entry): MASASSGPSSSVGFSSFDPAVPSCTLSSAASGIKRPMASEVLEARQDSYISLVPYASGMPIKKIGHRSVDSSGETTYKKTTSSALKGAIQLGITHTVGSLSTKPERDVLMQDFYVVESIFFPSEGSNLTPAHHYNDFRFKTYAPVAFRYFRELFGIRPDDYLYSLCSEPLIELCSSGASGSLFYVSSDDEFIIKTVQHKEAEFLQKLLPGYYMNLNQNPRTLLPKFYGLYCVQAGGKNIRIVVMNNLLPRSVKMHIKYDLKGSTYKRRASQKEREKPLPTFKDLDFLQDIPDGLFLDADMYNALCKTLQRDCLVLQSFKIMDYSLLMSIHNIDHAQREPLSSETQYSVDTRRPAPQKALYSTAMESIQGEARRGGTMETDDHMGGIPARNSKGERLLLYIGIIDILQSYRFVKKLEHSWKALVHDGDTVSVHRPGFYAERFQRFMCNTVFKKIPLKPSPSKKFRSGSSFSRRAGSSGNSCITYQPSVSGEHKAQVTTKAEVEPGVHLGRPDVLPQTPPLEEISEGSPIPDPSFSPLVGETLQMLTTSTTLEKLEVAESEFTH
Ephrin type-B receptor 3 (Homo sapiens), sequence (P54753 whole entry): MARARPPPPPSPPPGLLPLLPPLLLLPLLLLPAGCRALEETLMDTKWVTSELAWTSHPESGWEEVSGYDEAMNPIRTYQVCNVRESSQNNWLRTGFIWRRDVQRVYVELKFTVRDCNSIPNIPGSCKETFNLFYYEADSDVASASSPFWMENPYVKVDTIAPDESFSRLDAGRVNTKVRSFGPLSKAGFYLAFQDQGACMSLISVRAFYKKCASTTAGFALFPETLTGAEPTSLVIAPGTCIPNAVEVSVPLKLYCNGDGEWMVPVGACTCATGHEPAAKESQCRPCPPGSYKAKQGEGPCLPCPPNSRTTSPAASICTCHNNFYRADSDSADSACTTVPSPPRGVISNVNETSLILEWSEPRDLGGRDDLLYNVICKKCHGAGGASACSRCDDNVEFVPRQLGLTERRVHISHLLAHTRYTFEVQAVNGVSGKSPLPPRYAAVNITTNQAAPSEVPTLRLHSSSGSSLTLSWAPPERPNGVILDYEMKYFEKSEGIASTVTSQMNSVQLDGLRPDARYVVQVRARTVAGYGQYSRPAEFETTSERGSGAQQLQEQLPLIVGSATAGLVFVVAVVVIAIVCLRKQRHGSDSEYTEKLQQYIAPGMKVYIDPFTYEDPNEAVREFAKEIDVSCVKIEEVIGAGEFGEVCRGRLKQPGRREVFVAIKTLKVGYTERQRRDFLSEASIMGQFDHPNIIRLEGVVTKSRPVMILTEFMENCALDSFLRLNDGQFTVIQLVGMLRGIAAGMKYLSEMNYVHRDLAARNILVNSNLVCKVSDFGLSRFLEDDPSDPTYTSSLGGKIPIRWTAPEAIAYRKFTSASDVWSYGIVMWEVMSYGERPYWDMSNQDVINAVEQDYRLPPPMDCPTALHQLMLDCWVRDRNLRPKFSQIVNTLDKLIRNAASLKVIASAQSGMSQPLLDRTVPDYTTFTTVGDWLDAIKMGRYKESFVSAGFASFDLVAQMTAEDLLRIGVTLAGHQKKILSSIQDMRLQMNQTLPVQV
Serine/threonine-protein kinase PLK2 (Homo sapiens), sequence (Q9NYY3 whole entry, looked up): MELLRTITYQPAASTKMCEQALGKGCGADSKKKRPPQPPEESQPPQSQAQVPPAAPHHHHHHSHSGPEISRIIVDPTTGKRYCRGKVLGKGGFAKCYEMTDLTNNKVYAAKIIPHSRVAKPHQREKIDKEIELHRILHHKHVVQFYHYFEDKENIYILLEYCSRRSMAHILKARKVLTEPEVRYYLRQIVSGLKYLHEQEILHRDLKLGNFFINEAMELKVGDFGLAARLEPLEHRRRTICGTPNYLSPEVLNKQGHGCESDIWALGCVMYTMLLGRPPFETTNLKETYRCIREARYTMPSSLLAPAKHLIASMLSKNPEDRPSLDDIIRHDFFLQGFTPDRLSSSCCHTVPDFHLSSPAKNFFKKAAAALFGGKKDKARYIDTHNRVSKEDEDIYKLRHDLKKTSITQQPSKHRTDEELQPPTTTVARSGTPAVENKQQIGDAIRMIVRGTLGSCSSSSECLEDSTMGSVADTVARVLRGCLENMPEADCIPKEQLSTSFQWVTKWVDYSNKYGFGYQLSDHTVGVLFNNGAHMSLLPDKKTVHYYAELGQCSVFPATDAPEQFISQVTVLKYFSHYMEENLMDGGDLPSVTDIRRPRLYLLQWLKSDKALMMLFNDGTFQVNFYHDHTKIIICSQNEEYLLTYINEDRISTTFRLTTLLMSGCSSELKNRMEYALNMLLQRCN
Serine/threonine-protein kinase pim-2 (Homo sapiens), sequence (Q9P1W9 whole entry, looked up): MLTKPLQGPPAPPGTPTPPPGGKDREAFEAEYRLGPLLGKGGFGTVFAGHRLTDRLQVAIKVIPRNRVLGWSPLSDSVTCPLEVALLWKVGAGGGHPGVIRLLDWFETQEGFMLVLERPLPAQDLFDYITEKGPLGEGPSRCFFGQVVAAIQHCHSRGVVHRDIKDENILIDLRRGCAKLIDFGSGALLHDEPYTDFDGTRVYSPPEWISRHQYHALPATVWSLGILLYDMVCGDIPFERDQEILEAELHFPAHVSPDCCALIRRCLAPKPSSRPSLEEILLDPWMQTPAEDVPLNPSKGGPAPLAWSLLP

Consider `O=C1c2ccc(Nc3ccc(F)cc3F)cc2CCc2ccc(OC[C@H](O)CO)cc21` [Skepinone-L], for which the Activity in assay [1] was 100%; in assay [2] it was 78%; in assay [3] it was 96%; in assay [4], 100%; in [5], 87%; in assay [6] it was 100%. Besides, the Activity in [7] turned out to be 100%; in assay [8], 108%; in [9], 92%; in assay [10] it was 111%; in assay [11] it was 102%; in assay [12] it was 108%. In addition, the Activity was 111% in [13]; 103% in [14]; 111% in [15]; 98% in [16]; 105% in assay [17]; 91% in assay [18]. The Activity was determined as 97% in assay [19], 94% in [20] and 103% in [21].
